{"source": "patent US12162878B2", "about": "(HINOVA PHARMACEUTICALS INC., priority 2018, dated 2024)", "key": {"BT474 cells": {"test_system": "BT474 cells", "test": "Inhibition of proliferation of BT474 cells (CCK-8)", "assay_type": "cell-based, human", "settings": "for IC50: Homo sapiens, BT-474, 144 h, 6 days, CCK-8", "description": "(§1) • BT474 cell line (Cell Bank of Chinese Academy of Sciences, TCHu143) • FBS (Gibco, Cat. No. 10099-141) • 0.01M PBS (Biosharp, Cat. No. 162262) • RIPM1640 (Hyclone, Cat. No. 308090.01) • Penicillin-Streptomycin (Hyclone, Cat. No. SV30010) • Cell counting kit-8 (Signalway Antibody, Cat. No. CP002) • DMSO (Sigma, Cat. No. D5879) • Centrifuge Tube, 15 ml (Excell Bio, Cat. No. CS015-0001) • Cell Culture Dish (Excell Bio, Cat. No. CS016-0128) • 96-well cell culture cluster (Corning, Cat. No. 3599) 3. Experimental Method\n1) BT474 cells were subcultured in cell culture media, and the cells in good growth condition were seeded in a 96-well plate, 80 μL for each well, thus the number of cells per well was 1500, then the plate was cultured overnight in a 37° C., 5% CO2 cell incubator.\n2) The drug was prepared with dimethyl sulfoxide (DMSO) as a 10 mM stock solution. Prior to use, the solution was diluted 3 times with DMSO, and then diluted with a 3-fold gradient to obtain 9 concentration gradients. Then, each concentration of the compound was further diluted 200 times with the culture media (to ensure that DMSO concentration in the culture system was 0.1%), 2 repeat wells for each concentration. The diluted solution of each compound (20 μL) was added to the cell culture well (with a final concentration of 10 μM, 3.3 μM, […] and shaken gently for mixing. In addition, three negative control wells containing only cells and three blank control wells containing only culture medium (20 μL DMSO diluted 200 times with culture medium being added to six wells) were included.\n(§2) (1) After culturing for 6 days, 10 μL CCK-8 was added to each well and cultured for additional 2.5 h in a 37° C., 5% CO2 cell incubator.\n(§3) (2) The absorbance (OD value) at 450 nm was measured with a multifunctional microplate reader.\n(§4) (3) The data was analyzed by the Dose-response-inhibition equation in the software GraphPad Prism6, and the IC50 value was obtained."}, "BRD4(1,2)": {"biological_target": "BRD4(1,2) (Homo sapiens (Human), UniProt O60885)", "test": "HTRF binding of compounds on BRD4 (D1+D2)", "settings": "read-out: IC50 against BRD4(1,2)", "from_the_text": "Homogeneous time-resolved fluorescence technology (HTRF) was used to determine the binding effect of compounds on BRD4 (D1+D2) and BRDT (D1) proteins, as well as AlphaScreen method was used to detect the binding effect of compounds on BRD2 (D1+D2) and BRD3 (D1+D2) proteins.\nThe compounds were screened in vitro, and each compound was serially diluted to 10 concentrations. Four proteins BRD4 (D1+D2), BRDT (D1), BRD2 (D1+D2) and BRD3 (D1+D2) were chosen to determine the IC50 values of compounds (see Table 1).\n4. Compound treatment: The test compound was dissolved in dimethyl sulfoxide (DMSO), and the storage concentration was 10 mM.\n5. Steps for Homogeneous Time-Resolved Fluorescence Detection:\n1) According to the arrangement of the detection plate, all compounds were diluted in Echo plate.\nThe final dilution concentration of DMSO is 0.1%.\n2) The compound or DMSO was transferred to a 384-well detection plate with the Echo automatic sampler.\n3) Two-fold concentration of the mixture of protein and peptide was added to the detection plate.\n4) Two-fold concentration of mixed detection solution was added to the test plate, and shaken for 30 s.\n5) Incubating for 2 h at room temperature.\n6) Fluorescence signal was read on Envision multi-function microplate reader (excitation light wavelength being 340 nm, and emission light wavelength being 615 nm and 665 nm).\nThe experimental data were recorded in an Excel file, and equation (1) was used to obtain the inhibition rate. Inh%=(Max−Signal)/(Max−Min)*100 Equation (1):\nThe obtained data was recorded in GraphPad software, and equation (2) was used to provide the IC50 values. Y=Bottom+(Top−Bottom)/(1+10^((Log IC50−X)*Hill Slope)) Equation (2): […]\nY axis was the inhibition rate, and X axis was the compound concentration."}, "Vcap cells": {"test_system": "Vcap cells", "test": "Compound in combination with androgen receptor inhibitor HC-1119, proliferation of Vcap cells (CCK-8)", "assay_type": "cell-based, human", "settings": "for IC50: Homo sapiens, VCaP, 144 h, 6 days, read-out: IC50 for inhibition on the activity of Vcap; for effect of combination with HC-1119 on inhibitory action on Vcap cells (in words): in combination with HC-1119, Vcap cells", "description": "as §1, with “Vcap” for “BT474”, “TCHu220)” for “TCHu143)”, “DMEM HIGH Glucose” for “RIPM1640”, “SH30243.01)” for “308090.01)”, “2.” for “3.”\n1) Vcap cells were subcultured in cell culture media, and the cells in good growth condition were seeded in a 96-well plate, 60 μL for each well, thus the number of cells per well was 10000, then the plate was cultured overnight in a 37° C., 5% CO2 cell incubator.\n2) The drug was prepared with dimethyl sulfoxide (DMSO) as a 10 mM stock solution. Prior to use, the solution was diluted 3 times with DMSO, and then diluted with a 3-fold gradient to obtain 9 concentration gradients. Then, each concentration of the compound was further diluted 200 times with the culture media (to ensure that DMSO concentration in the culture system was 0.1%), 2 repeat wells for each concentration. The diluted solution of each compound (20 μL) was added to the cell culture well (with a final concentration of 10 μM, 3.3 μM, 1.1 μM . . . ); while the solution of HC-1119 was diluted with culture media to the concentrations of 50 μM and […], respectively, and the diluted solution of HC-1119 was added to the corresponding cell culture well (with a final concentration of 10 μM, 1 μM), then shaken gently for mixing. In addition, three negative control wells containing only cells and three blank control wells containing only culture media (20 μL DMSO diluted 200 times with culture media being added to six wells) were included.\nas §2, §3, §4"}, "[1]": {"settings": "in combination with 1 μM HC-1119, Vcap cells"}, "[2]": {"settings": "in combination with 10 μM HC-1119, Vcap cells"}}, "note": "Where two headings read alike, the source gives them in different places.", "data": [{"compound": "[2H]C([2H])([2H])n1cc(-c2cc(NS(=O)(=O)CC)ccc2N2CCC3(CC2)CC3)c2cc[nH]c2c1=O", "note": "[Compound 41]", "values": [{"measurement": "IC50", "setting": "BT474 cells", "result": 330, "unit": "nM"}, {"measurement": "IC50", "setting": "BRD4(1,2)", "result": 14, "unit": "nM"}]}, {"compound": "[2H]C([2H])([2H])n1cc(-c2cc(S(=O)(=O)CC)ccc2N2CCC3(CC3)C2)c2cc[nH]c2c1=O", "note": "[Compound 55, 4-(5(ethylsulfonyl)-2-(5-aza-spiro[2.4]heptan-5-yl)phenyl)-6-trideuteromethyl-1H-pyrrolo[2,3-c]pyridin-7(6H)-one]", "values": [{"measurement": "inhibitory action on BT474 cells (in words)", "setting": "BT474 cells", "result": "effective inhibitory action"}, {"measurement": "IC50", "setting": "BT474 cells", "result": 130, "unit": "nM"}]}, {"compound": "[2H]C([2H])([2H])n1cc(-c2cc(S(C)(=O)=O)ccc2N2CCC3(CC2)CC3(F)F)c2cc[nH]c2c1=O", "note": "[Compound 184, 4-(2-(1,1-difluoro-6-aza-spiro[2.5]octan-6-yl)-5-(methylsulfonyl)phenyl)-6-trideuteromethyl-1H-pyrrolo[2,3-c]pyridin-7(6H)-one]", "values": [{"measurement": "IC50", "setting": "Vcap cells; compound alone, Vcap cells", "result": 15, "unit": "nM"}, {"measurement": "IC50", "setting": "Vcap cells; [1]", "result": 0.33, "unit": "nM"}, {"measurement": "IC50", "setting": "Vcap cells; [2]", "result": 0.13, "unit": "nM"}, {"measurement": "effect of combination with HC-1119 on inhibitory action on Vcap cells (in words)", "setting": "Vcap cells", "result": "improve the inhibitory action"}, {"measurement": "IC50", "setting": "BRD4(1,2)", "result": 6.9, "unit": "nM"}]}, {"compound": "[2H]C([2H])([2H])n1cc(-c2cc(S(C)(=O)=O)c(F)cc2N2CCC3(CC2)CC3(F)F)c2cc[nH]c2c1=O", "note": "[Compound 219, 4-(2-(1,1-difluoro-6-aza-spiro[2.5]octan-6-yl)-4-fluoro-5-(methylsulfonyl)phenyl)-6-trideuteromethyl-1H-pyrrolo[2,3-c]pyridin-7(6H)-one]", "values": [{"measurement": "IC50", "setting": "Vcap cells; compound alone, Vcap cells", "result": 17.6, "unit": "nM"}, {"measurement": "IC50", "setting": "Vcap cells; [1]", "result": 0.55, "unit": "nM"}, {"measurement": "IC50", "setting": "Vcap cells; [2]", "result": 0.18, "unit": "nM"}, {"measurement": "effect of combination with HC-1119 on inhibitory action on Vcap cells (in words)", "setting": "Vcap cells", "result": "improve the inhibitory action"}, {"measurement": "IC50", "setting": "BRD4(1,2)", "result": 12, "unit": "nM"}]}]}
